This experiment addresses recombinant human HPK1 (Homo sapiens (Human), UniProt Q92918). As to the kind of experiment: HPK1 kinase assay (ADP-Glo). It counts as biochemical. The conditions noted are these: 25 μM ATP, MBP substrate. The method, boiled down: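 Activity was read as ADP formed, detected by ADP-Glo luminescence after the reaction of 5 ng recombinant human HPK1 with MBP and ATP (stocks 0.5 μg/μl and 25 μM) for 40 min at 30 °C. Buffer was Tris pH 7.5 with MgCl2, BSA and DTT, with compound in 0.5% DMSO. IC50 came from inhibition curves.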
A general note: ADP-Glo first removes unused ATP, then detects ADP through luciferase.

A value given as a limit tells only on which side of the number the result lay.

Chain of recombinant human HPK1 (Q92918 whole entry): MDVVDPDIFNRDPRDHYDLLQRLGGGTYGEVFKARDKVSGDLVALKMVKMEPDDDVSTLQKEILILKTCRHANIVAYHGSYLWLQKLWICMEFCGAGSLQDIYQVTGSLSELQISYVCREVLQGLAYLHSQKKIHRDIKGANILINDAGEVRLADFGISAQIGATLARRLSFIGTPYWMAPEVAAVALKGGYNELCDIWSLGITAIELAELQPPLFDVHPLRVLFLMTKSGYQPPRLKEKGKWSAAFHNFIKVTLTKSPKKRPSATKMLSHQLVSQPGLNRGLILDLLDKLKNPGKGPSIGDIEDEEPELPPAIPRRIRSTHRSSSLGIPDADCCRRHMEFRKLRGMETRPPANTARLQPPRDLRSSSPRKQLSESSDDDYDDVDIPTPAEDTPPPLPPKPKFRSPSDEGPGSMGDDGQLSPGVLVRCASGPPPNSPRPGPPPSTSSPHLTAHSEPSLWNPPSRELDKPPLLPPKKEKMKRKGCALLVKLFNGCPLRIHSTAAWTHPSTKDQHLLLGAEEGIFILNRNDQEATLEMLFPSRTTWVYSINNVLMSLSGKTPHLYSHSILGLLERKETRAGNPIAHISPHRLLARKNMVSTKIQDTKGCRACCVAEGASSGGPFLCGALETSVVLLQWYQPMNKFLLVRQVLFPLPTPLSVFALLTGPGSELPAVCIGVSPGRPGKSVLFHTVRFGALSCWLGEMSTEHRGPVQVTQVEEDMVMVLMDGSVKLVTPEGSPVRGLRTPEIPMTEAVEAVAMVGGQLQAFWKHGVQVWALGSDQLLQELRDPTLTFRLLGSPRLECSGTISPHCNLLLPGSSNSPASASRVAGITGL

On to `CNNc1c(F)c(Cl)c(-c2ccn3nc(NC(=O)[C@@H]4C[C@@H]4F)cc3c2)c2cn[nH]c12` [Example 553, (1S,2S)-N-(5-(5-chloro-6-fluoro-7-(2-methylhydrazineyl)-1H-indazol-4-yl)pyrazolo[1,5-a]pyridin-2-yl)-2-fluorocyclopropane-1-carboxamide], for which the IC50 (commonly the concentration needed to halve the response being measured) was under 100 nM.

As for `COC(=O)c1c(F)c(Cl)c(-c2ccn3nc(NC(=O)[C@@H]4C[C@@H]4F)cc3c2)c2cn[nH]c12` [Example 554, methyl 5-chloro-6-fluoro-4-(2-((1S,2S)-2-fluorocyclopropane-1-carboxamido)pyrazolo[1,5-a]pyridin-5-yl)-1H-indazole-7-carboxylate], the IC50 is under 100 nM. As to `CN(c1c(F)c(Cl)c(-c2ccn3nc(NC(=O)[C@@H]4C[C@@H]4F)cc3c2)c2cn[nH]c12)C1CCC(O)C1` (stereo partly drawn) [Example 555, (1S,2S)-N-(5-(5-chloro-6-fluoro-7-((3-hydroxycyclopentyl)(methyl)amino)-1H-indazol-4-yl)pyrazolo[1,5-a]pyridin-2-yl)-2-fluorocyclopropane-1-carboxamide], the IC50 was under 100 nM. Then `O=C(Nc1cc2cc(-c3c(Cl)c(F)c(NC4CCC(O)C4)c4[nH]ncc34)ccn2n1)[C@@H]1C[C@@H]1F` (stereo partly drawn) [Example 559, (1S,2S)-N-(5-(5-chloro-6-fluoro-7-((3-hydroxycyclopentyl)amino)-1H-indazol-4-yl)pyrazolo[1,5-a]pyridin-2-yl)-2-fluorocyclopropane-1-carboxamide], with under 100 nM.

Consider `CNC(=O)c1c(F)c(Cl)c(-c2ccn3nc(NC(=O)[C@@H]4C[C@@H]4F)cc3c2)c2cn[nH]c12` [Example 560, 5-chloro-6-fluoro-4-(2-((1S,2S)-2-fluorocyclopropane-1-carboxamido)pyrazolo[1,5-a]pyridin-5-yl)-N-methyl-1H-indazole-7-carboxamide], for which the IC50 is under 100 nM. With `CC(=O)c1c(F)c(C)c(-c2ccn3nc(NC(=O)[C@@H]4C[C@@H]4F)cc3c2)c2cn[nH]c12` [Example 566, (1S,2S)-N-(5-(7-acetyl-6-fluoro-5-methyl-1H-indazol-4-yl)pyrazolo[1,5-a]pyridin-2-yl)-2-fluorocyclopropane-1-carboxamide], the 50% inhibitory concentration (IC50) was 101 to 500 nM. In the case of `CSc1c(F)cc2[nH]ncc2c1-c1ccn2nc(NC(=O)[C@H]3C[C@@H]3F)cc2c1` [Example 571, (1R,2S)-2-fluoro-N-(5-(6-fluoro-5-(methylthio)-1H-indazol-4-yl)pyrazolo[1,5-a]pyridin-2-yl)cyclopropane-1-carboxamide], the IC50 is under 100 nM.

Consider `CSc1c(F)cc2[nH]ncc2c1-c1ccn2nc(NC(=O)[C@@H]3C[C@H]3F)cc2c1` [Example 572, (1S,2R)-2-fluoro-N-(5-(6-fluoro-5-(methylthio)-1H-indazol-4-yl)pyrazolo[1,5-a]pyridin-2-yl)cyclopropane-1-carboxamide], for which the IC50 was under 100 nM.

For the compound `CSc1c(F)cc2[nH]ncc2c1-c1ccn2nc(NC(=O)[C@H]3C[C@H]3F)cc2c1` [Example 573, (1R,2R)-2-fluoro-N-(5-(6-fluoro-5-(methylthio)-1H-indazol-4-yl)pyrazolo[1,5-a]pyridin-2-yl)cyclopropane-1-carboxamide], the IC50 was under 100 nM. As for `CC(=O)c1c(F)c(Cl)c(-c2ccn3nc(NC(=O)[C@@H]4C[C@@H]4F)cc3c2)c2cn[nH]c12` [Example 575, (1S,2S)-N-(5-(7-acetyl-5-chloro-6-fluoro-1H-indazol-4-yl)pyrazolo[1,5-a]pyridin-2-yl)-2-fluorocyclopropane-1-carboxamide], the 50% inhibitory concentration (IC50) is under 100 nM. Regarding `NC(=O)c1c(F)c(Cl)c(-c2ccn3nc(NC(=O)[C@@H]4C[C@@H]4F)cc3c2)c2cn[nH]c12` [Example 576, 5-chloro-6-fluoro-4-(2-((1S,2S)-2-fluorocyclopropane-1-carboxamido)pyrazolo[1,5-a]pyridin-5-yl)-1H-indazole-7-carboxamide], the IC50 was over 1000 nM. As for `CCOc1c(F)cc2[nH]ncc2c1-c1ccn2nc(NC(=O)[C@@H]3C[C@@H]3F)cc2c1` [Example 578, (1S,2S)-N-(5-(5-ethoxy-6-fluoro-1H-indazol-4-yl)pyrazolo[1,5-a]pyridin-2-yl)-2-fluorocyclopropane-1-carboxamide], the IC50 was under 100 nM. For the compound `CNC(=O)OCCN(C)c1c(F)c(C)c(-c2ccn3nc(NC(=O)[C@@H]4C[C@@H]4F)cc3c2)c2cn[nH]c12` [Example 580, 2-((6-fluoro-4-(2-((1S,2S)-2-fluorocyclopropane-1-carboxamido)pyrazolo[1,5-a]pyridin-5-yl)-5-methyl-1H-indazol-7-yl)(methyl)amino)ethyl methylcarbamate], the 50% inhibitory concentration (IC50) is under 100 nM.

Regarding `O=C(Nc1cc2cc(-c3c(Cl)c(F)c(C(F)F)c4[nH]ncc34)ccn2n1)[C@@H]1C[C@@H]1F` [Example 581, (1S,2S)-N-(5-(5-chloro-7-(difluoromethyl)-6-fluoro-1H-indazol-4-yl)pyrazolo[1,5-a]pyridin-2-yl)-2-fluorocyclopropane-1-carboxamide], the half-maximal inhibitory concentration (IC50) was under 100 nM. In the case of `Cc1c(F)c(C#N)c2[nH]ncc2c1-c1ccn2nc(NC(=O)[C@@H]3C[C@@H]3F)cc2c1` [Example 582, (1S,2S)-N-(5-(7-cyano-6-fluoro-5-methyl-1H-indazol-4-yl)pyrazolo[1,5-a]pyridin-2-yl)-2-fluorocyclopropane-1-carboxamide], the IC50 is under 100 nM. For `CN(C)c1c(F)cc(-c2ccn3nc(NC(=O)[C@@H]4C[C@@H]4F)cc3c2)c2cn[nH]c12` [Example 583, (1S,2S)-N-(5-(7-(dimethylamino)-6-fluoro-1H-indazol-4-yl)pyrazolo[1,5-a]pyridin-2-yl)-2-fluorocyclopropane-1-carboxamide] the value was under 100 nM; for `CNC(=O)c1c(F)c(C)c(-c2ccn3nc(NC(=O)[C@@H]4C[C@@H]4F)cc3c2)c2cn[nH]c12` [Example 584, 6-fluoro-4-(2-((1S,2S)-2-fluorocyclopropane-1-carboxamido)pyrazolo[1,5-a]pyridin-5-yl)-N,5-dimethyl-1H-indazole-7-carboxamide], 101 to 500 nM; for `CCc1c(F)c(C(F)(F)F)c2[nH]ncc2c1-c1ccn2nc(NC(=O)[C@@H]3C[C@@H]3F)cc2c1` [Example 585, (1S,2S)-N-(5-(5-ethyl-6-fluoro-7-(trifluoromethyl)-1H-indazol-4-yl)pyrazolo[1,5-a]pyridin-2-yl)-2-fluorocyclopropane-1-carboxamide], under 100 nM. Turning to `N#Cc1c(F)c(Cl)c(-c2ccn3nc(NC(=O)[C@@H]4C[C@@H]4F)cc3c2)c2cn[nH]c12` [Example 586, (1S,2S)-N-(5-(5-chloro-7-cyano-6-fluoro-1H-indazol-4-yl)pyrazolo[1,5-a]pyridin-2-yl)-2-fluorocyclopropane-1-carboxamide], the 50% inhibitory concentration (IC50) is under 100 nM. For `O=C(Nc1cc2cc(-c3cc(F)c(OC(F)(F)F)c4[nH]ncc34)ccn2n1)[C@@H]1C[C@@H]1F` [Example 587, (1S,2S)-2-fluoro-N-(5-(6-fluoro-7-(trifluoromethoxy)-1H-indazol-4-yl)pyrazolo[1,5-a]pyridin-2-yl)cyclopropane-1-carboxamide] the value was under 100 nM. Turning to `CSc1c(F)cc(-c2ccn3nc(NC(=O)[C@@H]4C[C@@H]4F)cc3c2)c2cn[nH]c12` [Example 589, (1S,2S)-2-fluoro-N-(5-(6-fluoro-7-(methylthio)-1H-indazol-4-yl)pyrazolo[1,5-a]pyridin-2-yl)cyclopropane-1-carboxamide], the IC50 is under 100 nM. For the compound `Cc1c(F)c(C(F)F)c2[nH]ncc2c1-c1ccn2nc(NC(=O)[C@@H]3C[C@@H]3F)cc2c1` [Example 591, (1S,2S)-N-(5-(7-(difluoromethyl)-6-fluoro-5-methyl-1H-indazol-4-yl)pyrazolo[1,5-a]pyridin-2-yl)-2-fluorocyclopropane-1-carboxamide], the IC50 was under 100 nM.

As to `Cc1c(F)c(OC(F)(F)F)c2[nH]ncc2c1-c1ccn2nc(NC(=O)[C@@H]3C[C@@H]3F)cc2c1` [Example 592, (1S,2S)-2-fluoro-N-(5-(6-fluoro-5-methyl-7-(trifluoromethoxy)-1H-indazol-4-yl)pyrazolo[1,5-a]pyridin-2-yl)cyclopropane-1-carboxamide], the half-inhibitory concentration (IC50) is under 100 nM. `CSc1ccc(-c2ccn3nc(NC(=O)[C@@H]4C[C@@H]4F)cc3c2)c2cn[nH]c12` [Example 593, (1S,2S)-2-fluoro-N-(5-(7-(methylthio)-1H-indazol-4-yl)pyrazolo[1,5-a]pyridin-2-yl)cyclopropane-1-carboxamide]: the IC50 is under 100 nM.

`Cn1nnnc1-c1c(F)c(Cl)c(-c2ccn3nc(NC(=O)[C@@H]4C[C@@H]4F)cc3c2)c2cn[nH]c12` [Example 594, (1S,2S)-N-(5-(5-chloro-6-fluoro-7-(1-methyl-1H-tetrazol-5-yl)-1H-indazol-4-yl)pyrazolo[1,5-a]pyridin-2-yl)-2-fluorocyclopropane-1-carboxamide]: the 50% inhibitory concentration (IC50) was under 100 nM.

For the compound `CN(C)c1ccc(-c2ccn3nc(NC(=O)[C@@H]4C[C@@H]4F)cc3c2)c2cn[nH]c12` [Example 595, (1S,2S)-N-(5-(7-(dimethylamino)-1H-indazol-4-yl)pyrazolo[1,5-a]pyridin-2-yl)-2-fluorocyclopropane-1-carboxamide], the 50% inhibitory concentration (IC50) was 101 to 500 nM. As to `CN(c1ncccn1)c1c(F)c(Cl)c(-c2ccn3nc(NC(=O)[C@@H]4C[C@@H]4F)cc3c2)c2cn[nH]c12` [Example 596, (1S,2S)-N-(5-(5-chloro-6-fluoro-7-(methyl(pyrimidin-2-yl)amino)-1H-indazol-4-yl)pyrazolo[1,5-a]pyridin-2-yl)-2-fluorocyclopropane-1-carboxamide], the half-inhibitory concentration (IC50) was under 100 nM.

`CSc1c(F)c(F)c2[nH]ncc2c1-c1ccn2nc(NC(=O)[C@H]3C[C@H]3F)cc2c1` [Example 598, (1R,2R)-N-(5-(6,7-difluoro-5-(methylthio)-1H-indazol-4-yl)pyrazolo[1,5-a]pyridin-2-yl)-2-fluorocyclopropane-1-carboxamide]: the IC50 is under 100 nM.
